Measurements from patent publication EP0908457B1, “3-(1,2-benzisothiazol- and isoxazol-5-Y1)-2,4(1H,3H)-pyrimidinedione or thione and 3-(1,2-benzisothiazol- and isoxazol-5-y1)-4(3H)-pyrimidinone or thione herbicidal agents” (BASF AKTIENGESELLSCHAFT, priority 1997, dated 1999).

How the values were obtained:
[1] = tested on: Cyperus iria; test: Preemergence weed control under flooded paddy conditions, CYPIR (Rice Flatsedge); type: in vivo; settings: flooded paddy; for herbicidal effect rating, CYPIR / CYPIR herbicidal rating: preemergence, rated three to four weeks after treatment; for CYPIR: preemergence weeds, herbicidal effect rating 0-9, three to four weeks after treatment; on herbicidal effect rating, CYPIR: meaning of each grade not given here
[2] = tested on: Sagittaria pygmaea, L.; test: Preemergence weed control under flooded paddy conditions, SAGPY (Arrowhead (Pygmaea)); type: in vivo; settings: flooded paddy; for herbicidal effect rating, SAGPY / SAGPY herbicidal rating: preemergence, rated three to four weeks after treatment; for SAGPY: preemergence weeds, herbicidal effect rating 0-9, three to four weeks after treatment; on herbicidal effect rating, SAGPY: meaning of each grade not given here
[3] = tested on: Oryza sativa, (L.) Tebonnet; test: Rice tolerance to post-transplant applications under flooded paddy conditions (Example 187), ORYSAT (Rice, Tebonnet); settings: for herbicidal effect rating, ORYSAT (rice tolerance) / herbicidal effect rating ORYSAT / ORYSAT herbicidal rating (rice tolerance): rated three to four weeks after treatment; for ORYSAT: herbicidal effect rating 0-9, three to four weeks after treatment; on herbicidal effect rating ORYSAT: meaning of each grade not given here
[4] = tested on: Monochoria vaginalis, Presl.; test: Preemergence weed control under flooded paddy conditions, MOOVA (Monochoria); type: in vivo; settings: flooded paddy; for herbicidal effect rating, MOOVA / MOOVA herbicidal rating: preemergence, rated three to four weeks after treatment; for MOOVA: preemergence weeds, herbicidal effect rating 0-9, three to four weeks after treatment; on herbicidal effect rating, MOOVA: meaning of each grade not given here
[5] = tested on: Echinochloa oryzoides (Ard.) Fritsch.; test: Preemergence weed control under flooded paddy conditions, ECHORC (Watergrass (Calif.)); type: in vivo; settings: flooded paddy; for herbicidal effect rating, ECHORC / ECHORC herbicidal rating: preemergence, rated three to four weeks after treatment; for ECHORC: preemergence weeds, herbicidal effect rating 0-9, three to four weeks after treatment; on herbicidal effect rating, ECHORC: meaning of each grade not given here
[6] = tested on: Cyperus serotinus, Rottb.; test: Preemergence weed control under flooded paddy conditions, CYPSE (Flatsedge); type: in vivo; settings: for herbicidal effect rating, CYPSE / CYPSE herbicidal rating: preemergence, rated three to four weeks after treatment; for CYPSE: preemergence weeds, herbicidal effect rating 0-9, three to four weeks after treatment; on herbicidal effect rating, CYPSE: meaning of each grade not given here

Cc1ccc(OCC(=O)N(C(C)C)C(C)C)c(-c2nsc3ccc(-n4c(=O)cc(C(F)(F)F)n(C)c4=O)cc23)c1 [Example 61, 3-{3-{6-[(Diisopropylcarbamoyl)methoxy]-m-tolyl}-1,2-benzisothiazol-5-yl}-1-methyl-6-(trifluoromethyl)-2,4(1H,3H)-pyrimidinedione]
9.0: herbicidal effect rating, MOOVA ([4]; 0.1250 kg/ha) | herbicidal effect rating, MOOVA ([4]; 0.2500 kg/ha)
0.0: herbicidal effect rating, CYPIR ([1]; 0.0313 kg/ha) | herbicidal effect rating, CYPIR ([1]; 0.0625 kg/ha) | herbicidal effect rating, SAGPY ([2]; 0.0313 kg/ha) | herbicidal effect rating, SAGPY ([2]; 0.0625 kg/ha) | herbicidal effect rating, SAGPY ([2]; 0.1250 kg/ha) | herbicidal effect rating, SAGPY ([2]; 0.2500 kg/ha) | herbicidal effect rating, ORYSAT (rice tolerance) ([3]; 0.0313 kg/ha) | herbicidal effect rating, ORYSAT (rice tolerance) ([3]; 0.0625 kg/ha) | herbicidal effect rating, ORYSAT (rice tolerance) ([3]; 0.1250 kg/ha) | herbicidal effect rating, ORYSAT (rice tolerance) ([3]; 0.2500 kg/ha) | herbicidal effect rating, CYPSE ([6]; 0.0313 kg/ha) | herbicidal effect rating, CYPSE ([6]; 0.0625 kg/ha) | herbicidal effect rating, CYPSE ([6]; 0.1250 kg/ha) | herbicidal effect rating, CYPSE ([6]; 0.2500 kg/ha)
7.0: herbicidal effect rating, ECHORC ([5]; 0.0625 kg/ha)
8.0: herbicidal effect rating, MOOVA ([4]; 0.0313 kg/ha) | herbicidal effect rating, MOOVA ([4]; 0.0625 kg/ha) | herbicidal effect rating, ECHORC ([5]; 0.1250 kg/ha) | herbicidal effect rating, ECHORC ([5]; 0.2500 kg/ha)
2.0: herbicidal effect rating, CYPIR ([1]; 0.1250 kg/ha) | herbicidal effect rating, CYPIR ([1]; 0.2500 kg/ha)
4.0: herbicidal effect rating, ECHORC ([5]; 0.0313 kg/ha)

Cn1c(C(F)(F)F)cc(=O)n(-c2ccc3snc(C(C#N)=Cc4ccco4)c3c2)c1=O [Example 594, 1,2-Benzisothiazole-3-acetonitrile, 5-[3,6-dihydro-3-methyl-2,6-dioxo-4-(trifluoromethyl)-1(2H)-pyrimidinyl]-alpha-furfurylidene-]
9.0: herbicidal effect rating, CYPIR ([1]; Rate 0.2500 kg/ha) | herbicidal effect rating, MOOVA ([4]; Rate 0.1250 kg/ha) | herbicidal effect rating, MOOVA ([4]; Rate 0.2500 kg/ha)
7.0: herbicidal effect rating, MOOVA ([4]; Rate 0.0620 kg/ha) | herbicidal effect rating, ECHORC ([5]; Rate 0.2500 kg/ha)
2.0: herbicidal effect rating, SAGPY ([2]; Rate 0.0320 kg/ha) | herbicidal effect rating ORYSAT ([3]; Rate 0.0620 kg/ha) | herbicidal effect rating ORYSAT ([3]; Rate 0.1250 kg/ha)
5.0: herbicidal effect rating, CYPIR ([1]; Rate 0.0620 kg/ha) | herbicidal effect rating, CYPIR ([1]; Rate 0.1250 kg/ha) | herbicidal effect rating, SAGPY ([2]; Rate 0.1250 kg/ha) | herbicidal effect rating, ECHORC ([5]; Rate 0.0620 kg/ha)
6.0: herbicidal effect rating, MOOVA ([4]; Rate 0.0320 kg/ha) | herbicidal effect rating, ECHORC ([5]; Rate 0.1250 kg/ha)
3.0: herbicidal effect rating, CYPIR ([1]; Rate 0.0320 kg/ha) | herbicidal effect rating ORYSAT ([3]; Rate 0.2500 kg/ha) | herbicidal effect rating, ECHORC ([5]; Rate 0.0320 kg/ha)
4.0: herbicidal effect rating, SAGPY ([2]; Rate 0.0620 kg/ha)
1.0: herbicidal effect rating ORYSAT ([3]; Rate 0.0320 kg/ha)
0.0: herbicidal effect rating, CYPSE ([6]; Rate 0.0320 kg/ha)

COC(=O)C(C)Oc1c(C)cc(C)cc1-c1nsc2ccc(-n3c(=O)cc(C(F)(F)F)n(C)c3=O)cc12 (centres unmarked) [Example 27, Methyl 2-{{6-{5-[3,6-dihydro-3-methyl-2,6-dioxo-4-(trifluoromethyl)-1(2H)-pyrimidinyl]-1,2-benzisothiazol-3-yl}-2,4-xylyl}oxy}propionate]
3.0: herbicidal effect rating, ORYSAT (rice tolerance) ([3]; 0.0625 kg/ha)
7.0: herbicidal effect rating, ECHORC ([5]; 0.0625 kg/ha)
5.0: herbicidal effect rating, ORYSAT (rice tolerance) ([3]; 0.1250 kg/ha)
4.0: herbicidal effect rating, CYPIR ([1]; 0.0625 kg/ha) | herbicidal effect rating, SAGPY ([2]; 0.2500 kg/ha)
8.0: herbicidal effect rating, MOOVA ([4]; 0.0313 kg/ha)
6.0: herbicidal effect rating, CYPIR ([1]; 0.1250 kg/ha) | herbicidal effect rating, ORYSAT (rice tolerance) ([3]; 0.2500 kg/ha) | herbicidal effect rating, ECHORC ([5]; 0.0313 kg/ha)
2.0: herbicidal effect rating, CYPIR ([1]; 0.0313 kg/ha) | herbicidal effect rating, SAGPY ([2]; 0.1250 kg/ha) | herbicidal effect rating, ORYSAT (rice tolerance) ([3]; 0.0313 kg/ha) | herbicidal effect rating, CYPSE ([6]; 0.2500 kg/ha)
9.0: herbicidal effect rating, CYPIR ([1]; 0.2500 kg/ha) | herbicidal effect rating, MOOVA ([4]; 0.0625 kg/ha) | herbicidal effect rating, MOOVA ([4]; 0.1250 kg/ha) | herbicidal effect rating, MOOVA ([4]; 0.2500 kg/ha) | herbicidal effect rating, ECHORC ([5]; 0.1250 kg/ha) | herbicidal effect rating, ECHORC ([5]; 0.2500 kg/ha)
0.0: herbicidal effect rating, SAGPY ([2]; 0.0313 kg/ha) | herbicidal effect rating, SAGPY ([2]; 0.0625 kg/ha) | herbicidal effect rating, CYPSE ([6]; 0.0313 kg/ha) | herbicidal effect rating, CYPSE ([6]; 0.0625 kg/ha) | herbicidal effect rating, CYPSE ([6]; 0.1250 kg/ha)

COCOCc1nsc2ccc(-n3c(=O)cc(C(F)(F)F)n(C)c3=O)cc12 [Example 478, 2,4(1H,3H)-Pyrimidinedione, 3-{3-[(methoxymethoxy)methyl]-1,2-benzisothiazol-5-yl}-1-methyl-6-(trifluoromethyl)-]
6.0: SAGPY herbicidal rating ([2]; 0.0320 kg/ha) | SAGPY herbicidal rating ([2]; 0.0620 kg/ha) | ECHORC herbicidal rating ([5]; 0.0620 kg/ha) | CYPSE herbicidal rating ([6]; 0.0320 kg/ha)
4.0: CYPIR herbicidal rating ([1]; 0.0320 kg/ha) | ECHORC herbicidal rating ([5]; 0.0320 kg/ha)
9.0: CYPIR herbicidal rating ([1]; 0.0620 kg/ha) | CYPIR herbicidal rating ([1]; 0.1250 kg/ha) | CYPIR herbicidal rating ([1]; 0.2500 kg/ha) | SAGPY herbicidal rating ([2]; 0.1250 kg/ha) | SAGPY herbicidal rating ([2]; 0.2500 kg/ha) | ORYSAT herbicidal rating (rice tolerance) ([3]; 0.0620 kg/ha) | ORYSAT herbicidal rating (rice tolerance) ([3]; 0.1250 kg/ha) | ORYSAT herbicidal rating (rice tolerance) ([3]; 0.2500 kg/ha) | MOOVA herbicidal rating ([4]; 0.0620 kg/ha) | MOOVA herbicidal rating ([4]; 0.1250 kg/ha) | MOOVA herbicidal rating ([4]; 0.2500 kg/ha) | ECHORC herbicidal rating ([5]; 0.2500 kg/ha) | CYPSE herbicidal rating ([6]; 0.1250 kg/ha) | CYPSE herbicidal rating ([6]; 0.2500 kg/ha)
7.0: ORYSAT herbicidal rating (rice tolerance) ([3]; 0.0320 kg/ha) | MOOVA herbicidal rating ([4]; 0.0320 kg/ha) | ECHORC herbicidal rating ([5]; 0.1250 kg/ha) | CYPSE herbicidal rating ([6]; 0.0620 kg/ha)

Cn1c(C(F)(F)F)cc(=O)n(-c2cc3c(CBr)nsc3cc2F)c1=O [Example 376, 2,4(1H,3H)-Pyrimidinedione, 3-[3-(bromomethyl)-6-fluoro-1,2-benzisothiazol-5-yl]-1-methyl-6-(trifluoromethyl)-]
5.5: herbicidal effect rating, ECHORC ([5]; Rate 0.0620 kg/ha) | herbicidal effect rating, CYPSE ([6]; Rate 0.1250 kg/ha)
6.0: herbicidal effect rating ORYSAT ([3]; Rate 0.0620 kg/ha) | herbicidal effect rating ORYSAT ([3]; Rate 0.1250 kg/ha)
6.5: herbicidal effect rating, ECHORC ([5]; Rate 0.1250 kg/ha)
8.0: herbicidal effect rating, CYPIR ([1]; Rate 0.0620 kg/ha) | herbicidal effect rating, SAGPY ([2]; Rate 0.0320 kg/ha) | herbicidal effect rating, CYPSE ([6]; Rate 0.2500 kg/ha)
3.0: herbicidal effect rating, CYPIR ([1]; Rate 0.0320 kg/ha) | herbicidal effect rating, ECHORC ([5]; Rate 0.0320 kg/ha) | herbicidal effect rating, CYPSE ([6]; Rate 0.0320 kg/ha)
4.0: herbicidal effect rating ORYSAT ([3]; Rate 0.0320 kg/ha) | herbicidal effect rating, CYPSE ([6]; Rate 0.0620 kg/ha)
8.5: herbicidal effect rating, SAGPY ([2]; Rate 0.0620 kg/ha) | herbicidal effect rating ORYSAT ([3]; Rate 0.2500 kg/ha)
9.0: herbicidal effect rating, CYPIR ([1]; Rate 0.1250 kg/ha) | herbicidal effect rating, CYPIR ([1]; Rate 0.2500 kg/ha) | herbicidal effect rating, SAGPY ([2]; Rate 0.1250 kg/ha) | herbicidal effect rating, SAGPY ([2]; Rate 0.2500 kg/ha) | herbicidal effect rating, MOOVA ([4]; Rate 0.0320 kg/ha) | herbicidal effect rating, MOOVA ([4]; Rate 0.0620 kg/ha) | herbicidal effect rating, MOOVA ([4]; Rate 0.1250 kg/ha) | herbicidal effect rating, MOOVA ([4]; Rate 0.2500 kg/ha) | herbicidal effect rating, ECHORC ([5]; Rate 0.2500 kg/ha)

Cc1ccc(OCC(=O)O)c(-c2noc3cc(F)c(-n4c(=O)cc(C(F)(F)F)n(C)c4=O)cc23)c1 [Example 425, Acetic acid, {{2-{5-[3,6-dihydro-3-methyl-2,6-dioxo-4-(trifluoromethyl)-1(2H)-pyrimidinyl]-6-fluoro-1,2-benzisoxazol-3-yl}-p-tolyl}oxy}-]
7.0: ORYSAT ([3]; 0.1250 kg/ha) | MOOVA ([4]; 0.0620 kg/ha)
3.0: SAGPY ([2]; 0.1250 kg/ha) | CYPSE ([6]; 0.0620 kg/ha) | CYPSE ([6]; 0.1250 kg/ha) | CYPSE ([6]; 0.2500 kg/ha)
4.0: SAGPY ([2]; 0.2500 kg/ha) | ORYSAT ([3]; 0.0320 kg/ha)
6.0: CYPIR ([1]; 0.1250 kg/ha) | ORYSAT ([3]; 0.0620 kg/ha) | MOOVA ([4]; 0.0320 kg/ha) | ECHORC ([5]; 0.0320 kg/ha)
9.0: CYPIR ([1]; 0.2500 kg/ha) | MOOVA ([4]; 0.1250 kg/ha) | MOOVA ([4]; 0.2500 kg/ha) | ECHORC ([5]; 0.0620 kg/ha) | ECHORC ([5]; 0.1250 kg/ha) | ECHORC ([5]; 0.2500 kg/ha)
8.0: ORYSAT ([3]; 0.2500 kg/ha)
0.0: CYPIR ([1]; 0.0320 kg/ha) | CYPIR ([1]; 0.0620 kg/ha) | SAGPY ([2]; 0.0320 kg/ha) | SAGPY ([2]; 0.0620 kg/ha) | CYPSE ([6]; 0.0320 kg/ha)
